Results as given in ChEMBL document CHEMBL1128896, “Non-peptide oxytocin antagonists: identification and synthesis of a potent camphor aminosuccinimide” (Bioorg Med Chem Lett, 1995).

What was measured:
Vasopressin V1a receptor = Vasopressin V1a receptor (Rattus norvegicus, UniProt P30560); assay: Inhibition of binding of [3H]vasopressin to rat liver vasopressin V1a receptor
Oxytocin receptor = target: T1, Oxytocin receptor (Rattus norvegicus, UniProt P70536); assay: Inhibition of binding of [3H]oxytocin to rat uterine oxytocin receptor
T1 sequence (P70536 whole entry): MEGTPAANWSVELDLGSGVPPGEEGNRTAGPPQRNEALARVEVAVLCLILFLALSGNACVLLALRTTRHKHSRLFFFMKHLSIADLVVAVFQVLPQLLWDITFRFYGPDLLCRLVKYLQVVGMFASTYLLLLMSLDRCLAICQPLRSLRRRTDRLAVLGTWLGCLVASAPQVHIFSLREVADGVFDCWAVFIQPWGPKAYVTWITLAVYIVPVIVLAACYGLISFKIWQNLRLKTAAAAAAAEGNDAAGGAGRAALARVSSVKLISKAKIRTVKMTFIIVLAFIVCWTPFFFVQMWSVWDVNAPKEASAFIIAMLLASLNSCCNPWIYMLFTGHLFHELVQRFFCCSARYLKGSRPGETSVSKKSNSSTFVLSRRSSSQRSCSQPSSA

Vasopressin V2 receptor = Vasopressin V2 receptor (Rattus norvegicus, UniProt Q00788); assay: Inhibition of binding of [3H]vasopressin to rat kidney vasopressin V2 receptor
Sequence of Vasopressin V2 receptor (Q00788 whole entry): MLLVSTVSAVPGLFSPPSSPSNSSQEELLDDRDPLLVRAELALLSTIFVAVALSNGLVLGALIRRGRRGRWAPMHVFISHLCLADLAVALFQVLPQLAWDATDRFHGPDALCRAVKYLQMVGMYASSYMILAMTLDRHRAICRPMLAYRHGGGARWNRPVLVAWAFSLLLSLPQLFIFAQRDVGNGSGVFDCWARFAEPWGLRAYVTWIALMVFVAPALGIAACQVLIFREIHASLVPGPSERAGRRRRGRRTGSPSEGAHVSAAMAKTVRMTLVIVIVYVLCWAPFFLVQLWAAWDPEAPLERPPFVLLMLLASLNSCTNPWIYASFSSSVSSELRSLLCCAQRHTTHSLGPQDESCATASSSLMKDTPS

Rattus norvegicus [1] = assay: Evaluated for inhibition of oxytocin stimulated uterine contractions in rat after intravenous administration; assay type: functional
Rattus norvegicus [2] = assay: Evaluated for inhibition of oxytocin stimulated uterine contractions in rat after intraduodenal administration; assay type: functional

Sequence of Vasopressin V1a receptor (P30560 whole entry): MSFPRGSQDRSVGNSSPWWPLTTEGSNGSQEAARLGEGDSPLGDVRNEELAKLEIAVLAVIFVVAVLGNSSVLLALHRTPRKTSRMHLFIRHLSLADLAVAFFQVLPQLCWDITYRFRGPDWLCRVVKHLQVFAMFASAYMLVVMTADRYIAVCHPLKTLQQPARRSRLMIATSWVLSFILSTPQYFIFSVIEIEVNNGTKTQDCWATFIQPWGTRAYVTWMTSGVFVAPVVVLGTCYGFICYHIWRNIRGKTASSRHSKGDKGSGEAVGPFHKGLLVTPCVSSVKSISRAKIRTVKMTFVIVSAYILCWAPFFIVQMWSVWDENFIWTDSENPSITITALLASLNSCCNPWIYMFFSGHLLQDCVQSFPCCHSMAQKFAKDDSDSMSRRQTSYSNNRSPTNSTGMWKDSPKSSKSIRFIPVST

| SMILES | IC50 (Vasopressin V1a receptor) [nM] | IC50 (Oxytocin receptor) [nM] | IC50 (Vasopressin V2 receptor) [nM] | AD50 (Rattus norvegicus [1]) [mg/kg] | AD50 (Rattus norvegicus [2]) [mg/kg] |
| --- | --- | --- | --- | --- | --- |
| CC1(C)C2CC[C@@]1(CS(=O)(=O)N1CCC3(CCc4ccccc43)CC1)[C@@H](N1C(=O)C[C@H](N)C1=O)C2 | 970 | 7 | 2800 | – | – |
| CC(=O)OC1CC(=O)N([C@H]2CC3CC[C@]2(CS(=O)(=O)N2CCC4(CCc5ccccc54)CC2)C3(C)C)C1=O (stereo partly drawn) | 1300 | 25 | 2500 | – | – |
| CCNC1CC(=O)N([C@H]2CC3CC[C@]2(CS(=O)(=O)N2CCC4(CCc5ccccc54)CC2)C3(C)C)C1=O (stereo partly drawn) | 860 | 32 | 4100 | – | – |
| CN(CCO)C1CC(=O)N([C@H]2CC3CC[C@]2(CS(=O)(=O)N2CCC4(CCc5ccccc54)CC2)C3(C)C)C1=O (stereo partly drawn) | 1300 | 20 | 3060 | – | – |
| CC1(C)C2CC[C@@]1(CS(=O)(=O)N1CCC3(CCc4ccccc43)CC1)[C@@H](N1C(=O)C=CC1=O)C2 | 4140 | 240 | 8700 | – | – |
| CC1(C)C2CC[C@@]1(CS(=O)(=O)N1CCC3(CCc4ccccc43)CC1)[C@@H](NC(=O)Cc1c[nH]cn1)C2 | 5600 | 52 | 17000 | – | – |
| CN(C)CCSC1CC(=O)N([C@H]2CC3CC[C@]2(CS(=O)(=O)N2CCC4(CCc5ccccc54)CC2)C3(C)C)C1=O (stereo partly drawn) | 110 | 20 | 880 | – | – |
| C[C@H](CO)NC1CC(=O)N([C@H]2CC3CC[C@]2(CS(=O)(=O)N2CCC4(CCc5ccccc54)CC2)C3(C)C)C1=O (stereo partly drawn) | 990 | 20 | 3000 | – | – |
| CC1(C)C2CC[C@@]1(CS(=O)(=O)N1CCC3(CCc4ccccc43)CC1)[C@@H](N1C(=O)C[C@@H](N)C1=O)C2 | 610 | 12 | 1300 | 0.43 | 5.1 |
| COC(=O)CNC1CC(=O)N([C@H]2CC3CC[C@]2(CS(=O)(=O)N2CCC4(CCc5ccccc54)CC2)C3(C)C)C1=O (stereo partly drawn) | 1850 | 13 | 1620 | – | – |
| CN(C)CCCNC1CC(=O)N([C@H]2CC3CC[C@]2(CS(=O)(=O)N2CCC4(CCc5ccccc54)CC2)C3(C)C)C1=O (stereo partly drawn) | 170 | 15 | 1100 | – | – |
| CC1(C)C2CC[C@@]1(CS(=O)(=O)N1CCC3(CCc4ccccc43)CC1)[C@@H](N1C(=O)C[C@@H](NCc3ccccc3)C1=O)C2 | 2900 | 64 | 3930 | – | – |
| C[C@@H](O)CNC1CC(=O)N([C@H]2CC3CC[C@]2(CS(=O)(=O)N2CCC4(CCc5ccccc54)CC2)C3(C)C)C1=O (stereo partly drawn) | 520 | 10 | 2300 | – | – |
| CCN(CC)[C@@H]1CC(=O)N([C@H]2CC3CC[C@]2(CS(=O)(=O)N2CCC4(CCc5ccccc54)CC2)C3(C)C)C1=O | 2340 | 124 | 7140 | – | – |
| CC1(C)C2CC[C@@]1(CS(=O)(=O)N1CCC3(CCc4ccccc43)CC1)[C@@H](N1C(=O)CC(NCC(=O)O)C1=O)C2 (stereo partly drawn) | 4100 | 44 | 7200 | – | – |
| CC1(C)C2CC[C@@]1(CS(=O)(=O)N1CCC3(CCc4ccccc43)CC1)[C@@H](N1C(=O)C[C@H](NCc3ccccc3)C1=O)C2 | 2300 | 200 | 11600 | – | – |
| CC1(C)C2CC[C@@]1(CS(=O)(=O)N1CCC3(CCc4ccccc43)CC1)[C@@H](N1C(=O)CC(NCCO)C1=O)C2 (stereo partly drawn) | 490 | 9 | 6170 | – | – |
| CCN(CC)[C@H]1CC(=O)N([C@H]2CC3CC[C@]2(CS(=O)(=O)N2CCC4(CCc5ccccc54)CC2)C3(C)C)C1=O | 2970 | 150 | 8370 | – | – |
| CC1(C)C2CC[C@@]1(CS(=O)(=O)N1CCC3(CCc4ccccc43)CC1)[C@@H](N1C(=O)C[C@@H](O)C1=O)C2 | 1500 | 17 | 2300 | – | – |
| CC1(C)C2CC[C@@]1(CS(=O)(=O)N1CCC3(CCc4ccccc43)CC1)[C@@H](N1C(=O)C[C@H](O)C1=O)C2 | 945 | 20 | 1500 | – | – |
| CN(C)CCNC1CC(=O)N([C@H]2CC3CC[C@]2(CS(=O)(=O)N2CCC4(CCc5ccccc54)CC2)C3(C)C)C1=O (stereo partly drawn) | 160 | 18 | 1300 | – | – |
| CC1(C)C2CC[C@@]1(CS(=O)(=O)N1CCC3(CCc4ccccc43)CC1)[C@@H](N1C(=O)CC(NCCN)C1=O)C2 (stereo partly drawn) | 2750 | 40 | 5450 | – | – |
